Measured values reported in patent US12071434B2, “Heterocyclic compound” (Takeda Pharmaceutical Company Limited, priority 2018, dated 2024).

Each molecule was assayed against T1, human orexin type 2 receptor (Homo sapiens, UniProt O43614) (assay: Measurement of orexin type 2 receptor agonist activity (calcium fluorescence, Fluo-4 AM, FDSS) in CHO cells forcibly expressing human OX2 receptor). Details: test compound 3 μM, DMSO = 0%, orexin A (human) 10 nM = 100%.
T1 construct: expressed in transfected cells
T1 sequence (O43614 1-444): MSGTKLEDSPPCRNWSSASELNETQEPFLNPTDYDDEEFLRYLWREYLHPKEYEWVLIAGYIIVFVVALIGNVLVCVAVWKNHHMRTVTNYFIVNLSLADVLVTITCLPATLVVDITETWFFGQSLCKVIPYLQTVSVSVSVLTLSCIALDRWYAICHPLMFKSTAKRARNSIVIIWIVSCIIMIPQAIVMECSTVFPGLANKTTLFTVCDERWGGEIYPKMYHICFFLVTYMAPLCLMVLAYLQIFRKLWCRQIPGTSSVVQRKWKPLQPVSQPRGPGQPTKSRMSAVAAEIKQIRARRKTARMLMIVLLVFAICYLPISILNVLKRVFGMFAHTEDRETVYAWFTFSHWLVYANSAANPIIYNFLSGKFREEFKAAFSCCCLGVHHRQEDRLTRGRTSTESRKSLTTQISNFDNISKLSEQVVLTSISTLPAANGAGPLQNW
Assay type: cell-based
Excerpt: To obtain a cell clone stably expressing human orexin type 2 receptor, human orexin type 2 receptor cDNA was inserted into pcDNA3.1(+) plasmid vector (Invitrogen), and a plasmid DNA for expression of human orexin type 2 receptor (pcDNA3.1(+)/hOX2R) was cloned. The plasmid DNA was introduced into CHO-dhfr cell by an electroporation method, and human orexin type 2 receptor expressing clone cells were obtained by limiting dilution method by using G418 drug resistance as a selection marker.
CHO cells forcibly expressing human OX2 receptor were seeded in each well of 384 well black transparent bottom plate (BD Falcon) at 7,500 cells/well, and cultured for one day in a 5% CO2 incubator at 37° C. After removal of the medium in the cell plate, assay buffer A containing a calcium indicator (HBSS (Thermo Fisher Scientific), 20 mM HEPES (Thermo Fisher Scientific), 0.1% BSA (Sigma-Aldrich), 2.5 μg/mL Fluo-4 AM (DOJINDO Chemical), 0.08% Pluronic F127 (DOJINDO Chemical), 1.25 mM probenecid (DOJINDO Chemical)) was added at 30 μL/well. The plate was stood for 30 min in a 5% CO2 incubator at 37° C., and further stood at room temperature for 30 min. A test compound prepared by diluting with assay buffer B (HBSS, 20 mM HEPES, 0.1% BSA) was added at 10 μL/well, and the fluorescence value was measured by FDSSpCELL (Hamamatsu Photonics K.K.) every one sec for 1 min, and thereafter every two sec for 1 min 40 sec. The activity (%) of the test compound was calculated assuming that variation in the fluorescence value when DMSO was added instead of the test compound was 0%, and variation in the fluorescence value when orexin A (human) (PEPTIDE INSTITUTE, INC.) was added at the final concentration of 10 nM was 100%.

Row | SMILES | 0X2R agonist activity (3 μM, %) [%]
1 | Cc1nn(C)c(=O)c2c1CC[C@H](NS(C)(=O)=O)[C@@H]2Cc1cccc(-c2ccccc2)c1 (racemic) [Example 96, rac-N-{(5R,6S)-5-[([1,1′-biphenyl]-3-yl)methyl]-1,3-dimethyl-4-oxo-3,4,5,6,7,8-hexahydrophthalazin-6-yl}methanesulfonamide] | 71
2 | CCS(=O)(=O)NC1CCc2c(C)nn(C)c(=O)c2C1Cc1cccc(-c2ccccc2)c1 (racemic) [Example 97, rac-N-{(5R,6S)-5-[([1,1′-biphenyl]-3-yl)methyl]-1,3-dimethyl-4-oxo-3,4,5,6,7,8-hexahydrophthlalazin-6-yl}ethanesulfonamide] | 82
3 | CCS(=O)(=O)N[C@H]1CCc2ncn(C(C)C)c(=O)c2[C@H]1Cc1cccc(-c2cc(C)ccn2)c1 (racemic) [Example 98, rac-N-[(5R,6S)-5-{[3-(4-methylpyridin-2-yl)phenyl]methyl}-4-oxo-3-(propan-2-yl)-3,4,5,6,7,8-hexahydroquinazolin-6-yl]ethanesulfonamide] | 107
4 | CCc1ccc2n(c1=O)C(Cc1cccc(-c3cc(F)cc(F)c3)c1)C(NS(C)(=O)=O)CC2 (racemic) [Example 101, rac-N-{(3S,4S)-4-[(3′,5′-difluoro[1,1′-biphenyl]-3-yl)methyl]-7-ethyl-6-oxo-1,3,4,6-tetrahydro-2H-quinozilin-3-yl}methanesulfonamide] | 98
5 | CCS(=O)(=O)N[C@H]1CCc2ncn(C(C)C)c(=O)c2[C@H]1Cc1cccc(-c2cc(C)cc(C)n2)c1 (racemic) [Example 102, rac-N-[(5R,6S)-5-{[3-(4,6-dimethylpyridin-2-yl)phenyl]methyl}-4-oxo-3-(propan-2-yl)-3,4,5,6,7,8-hexahydroquinazolin-6-yl]ethanesulfonamide] | 100
6 | Cc1cccc(-c2cccc(C[C@@H]3c4c(ncn(C(C)C)c4=O)CC[C@@H]3NS(C)(=O)=O)c2)c1F (racemic) [Example 108, rac-N-[(5R,6S)-5-[(2′-fluoro-3′-methyl[1,1′-biphenyl]-3-yl)methyl]-4-oxo-3-(propan-2-yl)-3,4,5,6,7,8-hexahydroquinazolin-6-yl]methanesulfonamide] | 100
7 | CCn1ccc2c(c1=O)[C@@H](Cc1cccc(-c3ccccc3F)c1)[C@@H](NS(C)(=O)=O)CC2 (racemic) [Example 119, rac-N-{(7S,8R)-2-ethyl-8-[(2′-fluoro[1,1′-biphenyl]-3-yl)methyl]-1-oxo-1,2,5,6,7,8-hexahydroisoquinolin-7-yl}methanesulfonamide] | 105
8 | CCn1ccc2c(c1=O)[C@@H](Cc1cccc(-c3cccc(C)c3F)c1)[C@@H](NS(C)(=O)=O)CC2 (racemic) [Example 120, rac-N-{(7S,8R)-2-ethyl-8-[(2′-fluoro-3′-methyl[1,1′-biphenyl]-3-yl)methyl]-1-oxo-1,2,5,6,7,8-hexahydroisoquinolin-7-yl}methanesulfonamide] | 98
9 | CCn1ccc2c(c1=O)[C@@H](Cc1cccc(-c3cccc(F)c3F)c1)[C@@H](NS(C)(=O)=O)CC2 (racemic) [Example 124, rac-N-{(7S,8R)-8-[(2′,3′-difluoro[1,1′-biphenyl]-3-yl)methyl]-2-ethyl-1-oxo-1,2,5,6,7,8-hexahydroisoquinolin-7-yl}methanesulfonamide] | 105
10 | CCn1ccc2c(c1=O)[C@@H](Cc1cccc(-c3cccc4c3OCC4)c1)[C@@H](NS(C)(=O)=O)CC2 (racemic) [Example 126, rac-N-[(7S,8R)-8-{[3-(2,3-dihydro-1-benzofuran-7-yl)phenyl]methyl}-2-ethyl-1-oxo-1,2,5,6,7,8-hexahydroisoquinolin-7-yl]methanesulfonamide] | 103
11 | CCn1ccc2c(c1=O)[C@@H](Cc1cccc(-c3cc(F)cc(C)c3F)c1)[C@@H](NS(C)(=O)=O)CC2 (racemic) [Example 127, rac-N-{(7S,8R)-8-[(2′,5′-difluoro-3′-methyl[1,1′-biphenyl]-3-yl)methyl]-2-ethyl-1-oxo-1,2,5,6,7,8-hexahydroisoquinolin-7-yl}methanesulfonamide] | 105
12 | CC(C)n1cnc2c(c1=O)[C@@H](Cc1ccccc1Oc1ccccc1)[C@@H](NS(C)(=O)=O)CC2 (racemic) [Example 133, rac-N-[(5R,6S)-4-oxo-5-[(2-phenoxyphenyl)methyl]-3-(propan-2-yl)-3,4,5,6,7,8-hexahydroquinazolin-6-yl]methanesulfonamide] | 72
13 | CC(C)n1cnc2c(c1=O)[C@@H](Cc1cccc(-c3ccccc3)c1)[C@@H](NS(=O)(=O)C1CC1)CC2 (racemic) [Example 134, rac-N-[(5R,6S)-5-[([1,1′-biphenyl]-3-yl)methyl]-4-oxo-3-(propan-2-yl)-3,4,5,6,7,8-hexahydroquinazolin-6-yl]cyclopropanesulfonamide] | 111
14 | Cc1n[nH]c(=O)c2c1CC[C@H](NS(C)(=O)=O)[C@@H]2Cc1cccc(-c2ccccc2)c1 (racemic) [Example 138, rac-N-{(5R,6S)-5-[([1,1′-biphenyl]-3-yl)methyl]-1-methyl-4-oxo-3,4,5,6,7,8-hexahydrophthalazin-6-yl}methanesulfonamide] | 44

Results, then the molecule that gave them:

Row | 0X2R agonist activity (3 μM, %) [%] | SMILES
15 | 79 | CS(=O)(=O)N[C@H]1CCc2ncn(CC3CC3)c(=O)c2[C@H]1Cc1cccc(-c2ccccc2)c1 (racemic) [Example 103, rac-N-[(5R,6S)-5-[([1,1′-biphenyl]-3-yl)methyl]-3-(cyclopropylmethyl)-4-oxo-3,4,5,6,7,8-hexahydroquinazolin-6-yl]methanesulfonamide]
16 | 89 | CCc1ccc2n(c1=O)[C@@H](Cc1cccc(-c3ccccc3)c1F)[C@@H](NS(C)(=O)=O)CC2 (racemic) [Example 104, rac-N-{(3S,4S)-7-ethyl-4-[(2-fluoro[1,1′-biphenyl]-3-yl)methyl]-6-oxo-1,3,4,6-tetrahydro-2H-quinolizin-3-yl}methanesulfonamide]
17 | 103 | Cc1cccc(-c2cccc(C[C@@H]3c4c(ncn(C(C)C)c4=O)CC[C@@H]3NS(C)(=O)=O)c2)c1 (racemic) [Example 106, rac-N-[(5R,6S)-5-[(3′-methyl[1,1′-biphenyl]-3-yl)methyl]-4-oxo-3-(propan-2-yl)-3,4,5,6,7,8-hexahydroquinazolin-6-yl]methanesulfonamide]
18 | 97 | CC(C)n1cnc2c(c1=O)[C@@H](Cc1cccc(-c3ccn(C)n3)c1)[C@@H](NS(C)(=O)=O)CC2 (racemic) [Example 117, rac-N-[(5R,6S)-5-{[3-(1-methyl-1H-pyrazol-3-yl)phenyl]-methyl}-4-oxo-3-(propan-2-yl)-3,4,5,6,7,8-hexahydroquinazolin-6-yl]methanesulfonamide]
19 | 98 | CCn1ccc2c(c1=O)[C@@H](Cc1cccc(-c3cccn(C)c3=O)c1)[C@@H](NS(C)(=O)=O)CC2 (racemic) [Example 129, rac-N-[(7S,8R)-2-ethyl-8-{[3-(1-methyl-2-oxo-1,2-dihydropyridin-3-yl)phenyl]methyl}-1-oxo-1,2,5,6,7,8-hexahydroisoquinolin-7-yl]methanesulfonamide]
20 | 104 | CCc1ccc2n(c1=O)[C@@H](Cc1cccc(-c3cc(F)cc(F)c3)c1F)[C@@H](NS(C)(=O)=O)CC2 (racemic) [Example 132, rac-N-{[3S,4S)-7-ethyl-6-oxo-4-[(2,3′,5′-trifluoro[1,1′-biphenyl]-3-yl)methyl]-1,3,4,6-tetrahydro-2H-quinolizin-3-yl}methanesulfonamide]
21 | 90 | CCc1cccc(C[C@H]2[C@@H](NS(C)(=O)=O)CCc3ccc(CC)c(=O)n32)c1 (racemic) [Example 135, rac-N-{(3S,4S)-7-ethyl-4-[(3-ethylphenyl)methyl]-6-oxo-1,3,4,6-tetrahydro-2H-quinolizin-3-yl}methanesulfonamide]
22 | 89 | CCc1ccc2n(c1=O)[C@@H](Cc1cccc(C3CC3)c1)[C@@H](NS(C)(=O)=O)CC2 (racemic) [Example 136, rac-N-{(3S,4S)-4-[(3-cyclopropylphenyl)methyl]-7-ethyl-6-oxo-1,3,4,6-tetrahydro-2H-quinolizin-3-yl}methanesulfonamide]
